Results from PMC9481570, “A small molecule antagonist of SMN disrupts the interaction between SMN and RNAP II” (Nature Communications, 2022).

System: GEMIN6
Assay: AP-MS chemical proteomics, GEMIN6
Format: binding, human
Experimental: The samples for AP-MS were prepared following pulldown procedure as previously described with minor modifications. Briefly, U2OS cells were lysed in RIPA buffer and the cell lysate was equally divided into two groups: (1) DMSO group (control group): the cell lysate was incubated with 20 μM biotin-labeled compound 1; (2) Cpmd 1 group (sample group): the cell lysate was incubated with 20 μM biotin-labeled compound 1 and 200 μM free compound 1. Each group contains three biological replicates. They were incubated overnight at 4 °C, then 30 μL streptavidin beads (Thermo Fisher, 20353) was added and incubated at 4 °C for 1 h. The beads were then washed with RIPA buffer for 3 times, 10 min/time. […]
Samples were analyzed by nanoLC-MS/MS (nanoRSLC, Thermo Fisher) using an Aurora series (Ion Opticks) reversed phase HPLC column (25 cm length × 75 µm inner diameter) and directly injected to an Orbitrap Eclipse (Thermo Fisher) using a 120 min gradient (mobile phase A = 0.1% formic acid, mobile phase B = 99.9% acetonitrile with 0.1% formic acid; hold 2% B for 5 min, 2–6% B in 0.1 min, 6–25% in 100 min, 25–50% in 15 min) at a flow rate of 350 nL/min. Eluted peptide ions were analyzed using a data-dependent acquisition (DDA) method with resolution settings of 120,000 and 15,000 (at m/z 200) for MS1 and MS2 scans, respectively. […]

## Cn1c2c(c(=N)c3c1CCC3)CCC2 [Compound 1, 4-methyl-2,3,4,5,6,7-hexahydrodicyclopenta[b,e]pyridin-8(1H)-imine]
GN=GEMIN6 (Q8WXD5), Cmpd minus DMSO, -LOG(P-value) 2.19893
  Difference: -5.406
biotin-Cmpd 1 pulldown, competition with 200 μM compound 1 relative to DMSO, U2OS lysate
  log2 FC (Cmpd 1/DMSO), GEMIN6: −5.4
